Measurements reported in US10980776B2, “Synergistic pharmaceutical combination for the treatment of squamous cell carcinoma of head and neck” (Piramal Enterprises Limited, priority 2011, dated 2021).

Tests used:
FADU cells = assay: CCK-8 cytotoxicity assay, determination of inhibitory concentrations in FADU cells; type: cell-based, human; conditions: 72 hr
Protocol: (§1) Logarithmically growing cells were plated at a density of 3×10^3 cells/well and allowed to recover overnight. […] After 72 hours, cell toxicity was determined by CCK-8 (Cell Counting Kit-8) reagent (Dojindo Molecular Technologies, Japan); WST-8 (2-(2-methoxy-4-nitrophenyl)-3-(4-nitrophenyl)-5-(2, 4-disulfophenyl)]-2H-tetrazolium, monosodium salt) assay. In accordance with the manufacturer's instructions, 5 μl/well CCK-8 reagent was added and plates were incubated for 2 hours. The toxicity was determined by measuring the absorbance on Tecan Sapphire multi-fluorescence micro-plate reader (Tecan, Germany, GmbH) at a wavelength of 450 nm corrected to 650 nm and normalized to controls.
(§2) CCK-8 allows convenient assays using Dojindo's tetrazolium salt, WST [8[(2-(2-methoxy-4-nitrophenyl)-3-(4-nitrophenyl)-5-(2,4-disulfophenyl)-2H-tetrazolium, monosodium salt], which produces a water-soluble formazan dye upon bioreduction in the presence of an electron carrier, 1-Methoxy PMS. CCK-8 solution is added directly to the cells; no pre-mixing of components is required. CCK-8 is a sensitive nonradioactive colorimetric assay for determining the number of viable cells in cell proliferation and cytotoxicity assays. WST-8 is bio-reduced by cellular dehydrogenases to an orange formazan product that is soluble in tissue culture medium. The amount of formazan produced is directly proportional to the number of living cells. The detection sensitivity of cell proliferation assays using WST-8 is higher than assays using the other tetrazolium salts such as MIT, XTT, MTS or WST-1. Optical Density was determined at measurement wavelength of 450 nm and reference wave length of 630 nm.
The cells were seeded at a density of 3000 cells/well, in a 200 μL in tissue culture grade 96 well plate and were allowed to recover for 24 hrs in a humidified 5%±0.2 CO2 incubator at 37° C.±0.5° C. […] The final DMSO concentration was 0.5% in wells. Plates were incubated for 48 hrs in humidified 5%±0.2 CO2 incubator at 37±0.5° C. After 48 hrs the plates were removed from CO2 incubator and 5 μL of Cell counting Kit (CCK-8) per well was added. The same plate was kept at 37° C. for 3 hrs, and allowed to come to room temperature. The absorbance at a wavelength of 450 nm was read on Tecan safire reader. The percent cytotoxicity was calculated using the following formula.

Detroit-562 cells = assay: Combination studies (single and sequential combination dosing), % cytotoxicity in Detroit-562 cells; conditions: Homo sapiens, Detroit 562, Detroit-562; for cytotoxicity at 14.1 µM: single agent at IC50 (compound B 14.1 μM); for cytotoxicity at 25.2 µM: single agent at IC70 (compound B 25.2 μM)
Protocol: as §1, §2
(§3) Sorafenib in the following dose of final concentration 1.8 μM and compound A in the following doses of final concentration 0.5 μM, 1.3 μM and 12.1 μM were analyzed in single dose and in all possible combinations of the dose range for the two anticancer agents mentioned above. The sequence of treatment is as follows; Detroit-562 cells were treated with sorafenib for 0 to 24 hrs. At the end of 24 hrs the cells were washed two times with plain MEM medium. Fresh MEM with 10% serum (200 μL/well) was added, followed by treatment with compound A from 24 hrs to 96 hrs.
as §3, with “compound B” for “compound A”, “concentration 2.7” for “concentration 0.5”, “μM, 14.1” for “μM, 1.3”, “and 25.2” for “and 12.1”, “follows; the” for “follows;”
as §3, with “Lapatinib” for “Sorafenib”, “1” for “1.8”, “follows; the” for “follows;”, “lapatinib” for “sorafenib”
Lapatinib in the following dose of final concentration 1.0 μM and compound B in the following doses of final concentration 2.7 μM, 14.1 μM and 25.2 μM were analyzed in single dose and in all possible combinations of the dose range for the two drugs mentioned above. The sequence of treatment is as follows; the Detroit-562 cells were treated with lapatinib for 0 to 24 hrs. At the end of 24 hrs the cells were washed two times with plain MEM medium. Fresh MEM with 10% serum (200 μL/well) was added, followed by treatment with compound A from 24 hrs to 96 hrs.

## CN1CC[C@@H](c2c(O)cc(O)c3c(=O)cc(-c4ccc(C(F)(F)F)cc4Cl)oc23)[C@@H]1CO.Cl [Compound B, (+)-trans-2-(2-chloro-4-trifluoromethyl-phenyl)-5,7-dihydroxy-8-(2-hydroxymethyl-1-methyl-pyrrolidin-3-yl)-chromen-4-one hydrochloride]
FADU cells
  IC30: 2.3 µM
  IC70: 9.6 µM
FADU cells; Homo sapiens
  IC50: 4.1 µM
  IC90: 31.4 µM
Detroit-562 cells; single agent at IC30 (lapatinib 1.0 μM; compound B 2.7 μM)
  cytotoxicity at 2.7 µM: 15%
Detroit-562 cells; single agent at IC30 (sorafenib 1.8 μM; compound B 2.7 μM)
  cytotoxicity at 2.7 µM: 15%
Detroit-562 cells; lapatinib study
  cytotoxicity at 14.1 µM: 18%
  cytotoxicity at 25.2 µM: 30%
Detroit-562 cells; sorafenib study
  cytotoxicity at 14.1 µM: 19%
  cytotoxicity at 25.2 µM: 26%
